Source: patent US11000033B2, “Ketone or oxime compound, and herbicide” (NISSAN CHEMICAL CORPORATION, priority 2014, dated 2021)

What was measured:
Assay type in all cases: in vivo
[1] = test system: Monochoria vaginalis; assay: Test Example 1: herbicidal activity, application before weed generation in submerged conditions (symbol C); conditions: application herbicide amount 320 g/ha
Outline: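 Weed control was rated three weeks after treatment on a 0–5 scale, from 5% or lower up to 90% or more. Pre-emergence water-surface application of diluted emulsion at a predetermined rate was made on the day of sowing, in flooded (4 cm water) pots containing rice seedlings, kept at 25–30 °C under glass.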

[2] = test system: Cyperus difformis; assay: Test Example 3: herbicidal effect by foliage application, Wagner pot (symbol E); conditions: application herbicide amount 320 g/ha
Outline: (§1)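 Foliar spray of a water-diluted emulsion at a predetermined herbicide amount, applied to 14-day-old plants. Seedlings were raised in flooded alluvial soil (0.1–0.5 cm water) at 25–30 °C in a greenhouse. Injury was rated after 3 weeks against fixed criteria.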

[3] = test system: rice plant; assay: Test Example 5: effect on crop by foliage application, plastic box (symbol b); conditions: 320 g/ha, 3 weeks after application
Outline: (§2)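 Greenhouse test at 25° C. to 30° C. Seeds of crops and weeds were spot-sown in boxes of sterilized diluvial soil under roughly 1.5 cm soil cover, then grown for foliage treatment.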

[4] = test system: beet; assay: Test Example 5: effect on crop by foliage application, plastic box (symbol f); conditions: 320 g/ha, 3 weeks after application
Outline: as §2

[5] = test system: Echinochloa crus-galli var. crus-galli; assay: Test Example 3: herbicidal effect by foliage application, Wagner pot (symbol H); conditions: application herbicide amount 320 g/ha
Outline: as §1

[6] = test system: Stellaria media; assay: Test Example 4: herbicidal effect by soil treatment (symbol P); conditions: application herbicide amount 320 g/ha
Outline: (§3)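 Seeds were sown in sterilized diluvial soil, covered with about 1.5 cm of soil, and the soil surface was sprayed with a water-diluted emulsion of the compound at a predetermined rate. Plants grew in a greenhouse at 25° C. to 30° C.; effects were scored visually 3 weeks after application.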

[7] = test system: corn; assay: Test Example 5: effect on crop by foliage application, plastic box (symbol c); conditions: 320 g/ha, 3 weeks after application
Outline: as §2

[8] = test system: corn; assay: Test Example 4: effect on crop by soil treatment (symbol c); conditions: application herbicide amount 320 g/ha
Outline: (§4)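 Sterilized diluvial soil, spot sowing, ~1.5 cm soil cover; greenhouse 25–30° C.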

[9] = test system: soybean; assay: Test Example 5: effect on crop by foliage application, plastic box (symbol d); conditions: 320 g/ha, 3 weeks after application
Outline: as §2

[10] = test system: Leptochloa chinensis; assay: Test Example 3: herbicidal effect by foliage application, Wagner pot (symbol D); conditions: application herbicide amount 320 g/ha
Outline: as §1

[11] = test system: wheat; assay: Test Example 4: effect on crop by soil treatment (symbol e); conditions: application herbicide amount 320 g/ha
Outline: as §4

[12] = test system: transplanted rice plant; assay: Test Example 1: effect on crop, application before weed generation in submerged conditions (symbol a); conditions: application herbicide amount 320 g/ha
Outline: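 Rice at 2.5 leaf stage transplanted into submerged soil (4 cm depth) sown with three weed species; herbicide applied before weed emergence.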

[13] = test system: Scirpus juncoides; assay: Test Example 2: herbicidal activity, application during weed generation in submerged conditions (symbol B); conditions: Table 23; application herbicide amount 320 g/ha; grade 0-5 by criteria of Test Example 1
Outline: (§5)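 Scoring of herbicidal effect took place 3 weeks after treatment, using the criteria of the earlier test. Treatment was water-surface application of diluted emulsifiable compound at a set dose. Plants were at one- to two-leaf stage in submerged alluvial soil (4 cm depth), greenhouse 25-30° C.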

[14] = test system: soybean; assay: Test Example 4: effect on crop by soil treatment (symbol d); conditions: application herbicide amount 320 g/ha
Outline: as §4

[15] = test system: Echinochloa oryzacola Vasing.; assay: Test Example 2: herbicidal activity, application during weed generation in submerged conditions (symbol A); conditions: Table 23; application herbicide amount 320 g/ha; grade 0-5 by criteria of Test Example 1
Outline: as §5

[16] = test system: Abutilon theophrasti; assay: Test Example 4: herbicidal effect by soil treatment (symbol M); conditions: application herbicide amount 320 g/ha
Outline: as §3

Compound | Herbicidal effect grade, C: Monochoria vaginalis [1] | herbicidal effect on E, grade 0-5 [2] | b: directly sowed rice plant, effect on crop (criteria of Test Example 1) [3] | f: beet, effect on crop (criteria of Test Example 1) [4] | herbicidal effect on H (Echinochloa crus-galli var. crus-galli), grade 0-5 [5] | c: corn, effect on crop (criteria of Test Example 1) [7] | d: soybean, effect on crop (criteria of Test Example 1) [9] | herbicidal effect on D (Leptochloa chinensis), grade 0-5 [10] | Effect grade on crop, a: transplanted rice plant [12] | Herbicidal effect grade, B: Scirpus juncoides [13] | Herbicidal effect grade, A: Echinochloa oryzacola Vasing. [15] | Herbicidal effect grade, P: Stellaria media [6] | Effect on crop grade, c: corn [8] | Effect on crop grade, e: wheat [11] | Effect on crop grade, d: soybean [14] | Herbicidal effect grade, M: Abutilon theophrasti [16] | other results
CON=C(C)CC1CC(OS(=O)(=O)N(C)C)=C(c2c(C)cc(-c3ccc(F)cc3)cc2C)C1=O (mixture of isomers) [6-060] | 5 (Herbicidal ratio of 90% or more (almost completely withered)) | 5 (Herbicidal ratio of 90% or more (almost completely withered)) | 5 (Herbicidal ratio of 90% or more (almost completely withered)) | 2 (Herbicidal ratio of 20% or higher and lower than 40%) | 5 (Herbicidal ratio of 90% or more (almost completely withered)) | 5 (Herbicidal ratio of 90% or more (almost completely withered)) | 1 (Herbicidal ratio of 5% or higher and lower than 20%) | 5 (Herbicidal ratio of 90% or more (almost completely withered)) | 5 (Herbicidal ratio of 90% or more (almost completely withered)) | 4 (Herbicidal ratio of 70% or higher and lower than 90%) | 5 (Herbicidal ratio of 90% or more (almost completely withered)) | – | – | – | – | – | P: Stellaria media, herbicidal effect grade [6]: 0 (Herbicidal ratio of 5% or lower (almost no effect)); c: corn, effect on crop grade [8]: 0 (Herbicidal ratio of 5% or lower (almost no effect)); e: wheat, effect on crop grade [11]: 0 (Herbicidal ratio of 5% or lower (almost no effect)); d: soybean, effect on crop grade [14]: 0 (Herbicidal ratio of 5% or lower (almost no effect)); M: Abutilon theophrasti, herbicidal effect grade [16]: 0 (Herbicidal ratio of 5% or lower (almost no effect))
CON=C(C)CC1CC(OC(=O)C(C)CSC)=C(c2c(C)cc(-c3ccc(Cl)cc3)cc2C)C1=O (centres unmarked) [6-086] | 0 (Herbicidal ratio of 5% or lower (almost no effect)) | 5 (Herbicidal ratio of 90% or more (almost completely withered)) | 5 (Herbicidal ratio of 90% or more (almost completely withered)) | 3 (Herbicidal ratio of 40% or higher and lower than 70%) | 5 (Herbicidal ratio of 90% or more (almost completely withered)) | 3 (Herbicidal ratio of 40% or higher and lower than 70%) | 5 (Herbicidal ratio of 90% or more (almost completely withered)) | 5 (Herbicidal ratio of 90% or more (almost completely withered)) | 5 (Herbicidal ratio of 90% or more (almost completely withered)) | 4 (Herbicidal ratio of 70% or higher and lower than 90%) | 4 (Herbicidal ratio of 70% or higher and lower than 90%) | 4 (Herbicidal ratio of 70% or higher and lower than 90%) | 0 (Herbicidal ratio of 5% or lower (almost no effect)) | 2 (Herbicidal ratio of 20% or higher and lower than 40%) | 5 (Herbicidal ratio of 90% or more (almost completely withered)) | 0 (Herbicidal ratio of 5% or lower (almost no effect)) | –
COc1ccc(-c2cc(C)c(C3=C(O)CC(CC(C)=O)C3=O)c(C)c2)cc1 (centres unmarked) [7-006] | 0 (Herbicidal ratio of 5% or lower (almost no effect)) | 0 (Herbicidal ratio of 5% or lower (almost no effect)) | 5 (Herbicidal ratio of 90% or more (almost completely withered)) | 0 (Herbicidal ratio of 5% or lower (almost no effect)) | 5 (Herbicidal ratio of 90% or more (almost completely withered)) | 4 (Herbicidal ratio of 70% or higher and lower than 90%) | 0 (Herbicidal ratio of 5% or lower (almost no effect)) | 5 (Herbicidal ratio of 90% or more (almost completely withered)) | 2 (Herbicidal ratio of 20% or higher and lower than 40%) | 0 (Herbicidal ratio of 5% or lower (almost no effect)) | 2 (Herbicidal ratio of 20% or higher and lower than 40%) | 0 (Herbicidal ratio of 5% or lower (almost no effect)) | 0 (Herbicidal ratio of 5% or lower (almost no effect)) | 0 (Herbicidal ratio of 5% or lower (almost no effect)) | 1 (Herbicidal ratio of 5% or higher and lower than 20%) | 0 (Herbicidal ratio of 5% or lower (almost no effect)) | –
COc1cc(C)c(C2=C(O)CC(CC(C)=O)C2=O)c(C)c1 (centres unmarked) [7-020] | 0 (Herbicidal ratio of 5% or lower (almost no effect)) | 3 (Herbicidal ratio of 40% or higher and lower than 70%) | 3 (Herbicidal ratio of 40% or higher and lower than 70%) | 0 (Herbicidal ratio of 5% or lower (almost no effect)) | 4 (Herbicidal ratio of 70% or higher and lower than 90%) | 0 (Herbicidal ratio of 5% or lower (almost no effect)) | 0 (Herbicidal ratio of 5% or lower (almost no effect)) | 5 (Herbicidal ratio of 90% or more (almost completely withered)) | 2 (Herbicidal ratio of 20% or higher and lower than 40%) | 0 (Herbicidal ratio of 5% or lower (almost no effect)) | 1 (Herbicidal ratio of 5% or higher and lower than 20%) | 0 (Herbicidal ratio of 5% or lower (almost no effect)) | 0 (Herbicidal ratio of 5% or lower (almost no effect)) | 0 (Herbicidal ratio of 5% or lower (almost no effect)) | 0 (Herbicidal ratio of 5% or lower (almost no effect)) | 0 (Herbicidal ratio of 5% or lower (almost no effect)) | –
CON=C(C)C(=NOC)C1CC(O)=C(c2c(C)cc(C)cc2C)C1=O (centres unmarked) [8-003] | 0 (Herbicidal ratio of 5% or lower (almost no effect)) | – | – | – | – | – | – | – | 0 (Herbicidal ratio of 5% or lower (almost no effect)) | 0 (Herbicidal ratio of 5% or lower (almost no effect)) | 0 (Herbicidal ratio of 5% or lower (almost no effect)) | 0 (Herbicidal ratio of 5% or lower (almost no effect)) | 0 (Herbicidal ratio of 5% or lower (almost no effect)) | 0 (Herbicidal ratio of 5% or lower (almost no effect)) | 0 (Herbicidal ratio of 5% or lower (almost no effect)) | 0 (Herbicidal ratio of 5% or lower (almost no effect)) | E herbicidal effect grade ([2]; Table 24): 0 (Herbicidal ratio of 5% or lower (almost no effect)); b: directly sowed rice plant, effect on crop grade [3]: 0 (Herbicidal ratio of 5% or lower (almost no effect)); f: beet, effect on crop grade [4]: 0 (Herbicidal ratio of 5% or lower (almost no effect)); H (Echinochloa crus-galli var. crus-galli) herbicidal effect grade ([5]; Table 24): 0 (Herbicidal ratio of 5% or lower (almost no effect)); c: corn, effect on crop grade [7]: 0 (Herbicidal ratio of 5% or lower (almost no effect)); d: soybean, effect on crop grade [9]: 0 (Herbicidal ratio of 5% or lower (almost no effect)); D (Leptochloa chinensis) herbicidal effect grade ([10]; Table 24): 0 (Herbicidal ratio of 5% or lower (almost no effect))
